Values belong to the compound of their own block, whether it stands above or below them.
Experiments:
[1] = tested on: SRF; experiment: SRF reporter gene (5×SRE-luciferase) assay; type: cell-based; settings: HuH7 cells, 24 h; for SRF activity (5×SRE-luciferase): 30 μM; for Reduction in SRF activity: 5 μM
Experimental: HuH7 cells were seeded in a 12-well plate and transiently transfected with 0.25 μg 5×SRE and 0.15 μg Renilla luciferase simian virus 40 (SV40) promoter reporter as an internal control. The next day, cells were treated with inhibitors, as indicated in the figure legends, and the Dual-Luciferase Reporter Assay System (Promega, Madison, Wisconsin, USA) and the BioFix Lumi-10 (Macherey-Nagel, Düren, Germany) were used. The firefly luciferase activity was normalized to the Renilla luciferase activity to compensate for divergent transfection efficiencies.

[2] = tested on: HuH7 cells; experiment: Cell proliferation assay (cell counting) in HuH7 cells; type: cell-based; settings: for Inhibitory effects on HCC proliferation as compared to inhibitor 10: 10 μM, 5 days; for Concentration sufficient to cease HCC cell proliferation: titration 10, 7.5, 5, 2.5 μM
Experimental: (§1) Cells were seeded and counted every 24 h for 5 days by using a Neubauer counting chamber.

[3] = tested on: HuH6 cells; experiment: Cell proliferation assay (cell counting) in HuH6 cells; type: cell-based
Experimental: as §1

[4] = tested on: SK3 channels; design: method as in Sørensen et al. 22; settings: relative to NS8593 (Figure 1C); ref Sørensen et al. 22; cited from earlier work
[5] = molecular target: TRPM7 (Mus musculus, UniProt Q923J1); experiment: Aequorin-based Ca2+ influx assay for TRPM7 inhibition; type: cell-based; settings: for Hill slopes for TRPM7 inhibition: Ca2+ influx assay, logistic equation fits, n = 3; for TRPM7 affinity compared to NS: relative to NS8593 (Figure 1C)
Sequence of TRPM7 (Q923J1 whole entry): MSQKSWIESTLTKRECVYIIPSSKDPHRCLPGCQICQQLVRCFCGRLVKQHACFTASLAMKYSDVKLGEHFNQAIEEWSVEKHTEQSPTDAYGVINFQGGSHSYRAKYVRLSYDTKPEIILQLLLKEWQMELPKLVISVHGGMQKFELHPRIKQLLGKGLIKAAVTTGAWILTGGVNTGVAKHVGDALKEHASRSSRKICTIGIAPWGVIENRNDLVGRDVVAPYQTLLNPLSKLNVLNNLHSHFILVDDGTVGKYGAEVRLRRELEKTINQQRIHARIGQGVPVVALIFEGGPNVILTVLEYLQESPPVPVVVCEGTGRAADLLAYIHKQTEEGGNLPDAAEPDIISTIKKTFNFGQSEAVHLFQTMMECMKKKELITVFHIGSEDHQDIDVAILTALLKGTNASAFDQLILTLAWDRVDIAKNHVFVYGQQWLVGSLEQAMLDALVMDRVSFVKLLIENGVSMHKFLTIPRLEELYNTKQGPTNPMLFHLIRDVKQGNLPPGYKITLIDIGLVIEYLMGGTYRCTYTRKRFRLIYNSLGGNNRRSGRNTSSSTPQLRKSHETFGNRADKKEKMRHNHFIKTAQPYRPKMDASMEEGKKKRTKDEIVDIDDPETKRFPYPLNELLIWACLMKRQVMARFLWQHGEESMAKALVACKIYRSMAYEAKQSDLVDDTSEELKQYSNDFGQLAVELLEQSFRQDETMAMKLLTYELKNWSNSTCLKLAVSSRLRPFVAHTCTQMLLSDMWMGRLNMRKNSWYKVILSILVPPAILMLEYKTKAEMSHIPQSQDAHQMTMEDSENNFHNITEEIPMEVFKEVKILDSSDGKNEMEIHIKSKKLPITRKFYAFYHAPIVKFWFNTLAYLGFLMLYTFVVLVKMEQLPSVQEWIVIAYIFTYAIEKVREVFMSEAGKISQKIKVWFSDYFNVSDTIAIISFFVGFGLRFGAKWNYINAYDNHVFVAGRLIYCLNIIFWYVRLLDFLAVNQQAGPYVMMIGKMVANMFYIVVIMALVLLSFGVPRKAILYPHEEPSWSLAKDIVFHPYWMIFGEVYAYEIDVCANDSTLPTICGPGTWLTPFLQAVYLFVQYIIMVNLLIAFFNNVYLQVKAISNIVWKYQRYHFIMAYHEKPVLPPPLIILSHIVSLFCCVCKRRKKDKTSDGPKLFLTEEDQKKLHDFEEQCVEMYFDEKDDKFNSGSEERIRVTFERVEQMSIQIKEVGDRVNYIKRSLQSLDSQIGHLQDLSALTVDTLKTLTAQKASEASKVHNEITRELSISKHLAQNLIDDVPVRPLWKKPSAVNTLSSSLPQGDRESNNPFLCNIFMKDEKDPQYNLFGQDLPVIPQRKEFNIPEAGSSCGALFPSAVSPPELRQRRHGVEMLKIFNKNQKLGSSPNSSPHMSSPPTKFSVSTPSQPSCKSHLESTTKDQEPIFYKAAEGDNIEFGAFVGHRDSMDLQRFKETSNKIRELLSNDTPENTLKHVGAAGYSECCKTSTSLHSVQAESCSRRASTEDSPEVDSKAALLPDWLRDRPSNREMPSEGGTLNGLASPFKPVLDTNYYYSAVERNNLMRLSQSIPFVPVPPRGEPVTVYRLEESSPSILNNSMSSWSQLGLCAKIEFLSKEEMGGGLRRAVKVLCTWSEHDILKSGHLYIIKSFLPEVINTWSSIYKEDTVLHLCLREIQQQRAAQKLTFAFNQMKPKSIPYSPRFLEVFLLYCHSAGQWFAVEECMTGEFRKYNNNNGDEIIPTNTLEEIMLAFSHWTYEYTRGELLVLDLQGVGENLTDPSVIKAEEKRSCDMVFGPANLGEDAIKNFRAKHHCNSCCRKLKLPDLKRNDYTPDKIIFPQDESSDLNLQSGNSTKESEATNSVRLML
Experimental: HEK293T cells were transfected with 2 μg TRPM7 plasmid DNA and 0.1 μg pG5A plasmid DNA. After 24 h, the cells were washed with Mg^2+-free HEPES-buffered saline (HBS) containing 140 mM NaCl, 5.4 mM KCl, 0.5 mM CaCl2, 5 mM HEPES (pH 7.4), and 10 mM glucose and resuspended in Mg^2+-free HBS. After 30 min of incubation with 5 μM coelenterazine (Biaffin) at room temperature to reconstitute the aequorin, cells were washed two times by centrifugation at 2,000 rpm for 5 min (Heraeus Pico 17 microcentrifuge, Thermo Fisher Scientific). Then, they were resuspended in Mg^2+-free HBS and plated into 96-well plates. Luminescence was detected at room temperature using a CLARIOstar microplate reader (BMG Labtech). CaCl2-containing Mg^2+-free HBS was injected in the presence or absence of the inhibitors to increase the extracellular Ca^2+ concentration to 5 mM. Cell lysis with 0.1% (v/v) Triton X-100 in the Mg^2+-free HBS was used to terminate the experiment, and total bioluminescence was measured. The analysis of the bioluminescence rates (counts/s) was done in 1-s intervals and calibrated as [Ca^2+]i values using the following equation: p[Ca^2+]i=0,332588(−log(k))+5,5593 k represents the rate of aequorin consumption.
The following equation was used to determine the IC50 values of the inhibitors: E(c)=Emin+[…]/1+c^h/IC50^h
E(c) is the functional effect at the concentration c of the inhibitor, Emin is the minimal effect, Emax is the maximal effect, IC50 is the concentration of the inhibitor that produces the half-maximal effect, and h is the Hill coefficient. GraphPad Prism 8.4.0 was used for fitting.

[6] = tested on: MRTF-A; experiment: Immunofluorescence of MRTF-A nuclear localization; type: cell-based; settings: for MRTF-A nuclear localization reduced to: HuH7 and HuH6 cells (Figures 3B and S3A)
Experimental: Cells were fixated by a 10-min incubation with 4% paraformaldehyde in PBS. To permeabilize the cells, 0.2% Triton X-100 in PBS was used. Blocking was done with 1% BSA in PBS for 30 min at 37°C, followed by incubation with the respective primary antibodies (Table S4) for 1 h at room temperature and the secondary Alexa Fluor 488-coupled antibody (Invitrogen) (Table S5). The nucleus was stained with DAPI (Sigma-Aldrich). Images were taken using a fluorescence microscope (Nikon).

[7] = tested on: HuH7 cells; experiment: SA-β-Gal staining (cellular senescence) in HuH7 cells; type: cell-based; settings: for Concentration that significantly increases SA-β-Gal-positive cells (senescence induction): HuH7 cells
Experimental: (§2) Cellular senescence of treated cells was determined using the Senescence-β-galactosidase staining kit according to the manufacturer’s instructions (Cell Signaling Technology, Danvers, MA, USA). 300 cells were counted. The ratio stained to unstained cells were used to calculate the percentage of SA-β-gal-positive cells.

[8] = tested on: HuH7 cells; experiment: Matrigel invasion assay; type: cell-based; settings: 20 h
Experimental: The cell invasion assay was performed using Corning BioCoat Matrigel Invasion Chambers (Corning, Tewksbury, MA, USA) according to the manufacturer’s instructions. 2.5 × 10^4 cells per well were seeded and incubated for 20 h at 37°C. The invaded cells were fixed with methanol, stained with crystal violet, and counted under a light microscope (Carl Zeiss, Oberkochen, Germany).

[9] = molecular target: T1, RhoA-TRPM7 interaction (Homo sapiens, UniProt Q96QT4); experiment: In situ proximity ligation assay for endogenous TRPM7 and RhoA; type: cell-based; settings: HuH7 cells, 6 h
T1 construct: proximity ligation assay (PLA) for endogenous TRPM7 and RhoA in HuH7 cells; endogenous in cells; host or cells: HuH7
T1 sequence (Q96QT4 whole entry): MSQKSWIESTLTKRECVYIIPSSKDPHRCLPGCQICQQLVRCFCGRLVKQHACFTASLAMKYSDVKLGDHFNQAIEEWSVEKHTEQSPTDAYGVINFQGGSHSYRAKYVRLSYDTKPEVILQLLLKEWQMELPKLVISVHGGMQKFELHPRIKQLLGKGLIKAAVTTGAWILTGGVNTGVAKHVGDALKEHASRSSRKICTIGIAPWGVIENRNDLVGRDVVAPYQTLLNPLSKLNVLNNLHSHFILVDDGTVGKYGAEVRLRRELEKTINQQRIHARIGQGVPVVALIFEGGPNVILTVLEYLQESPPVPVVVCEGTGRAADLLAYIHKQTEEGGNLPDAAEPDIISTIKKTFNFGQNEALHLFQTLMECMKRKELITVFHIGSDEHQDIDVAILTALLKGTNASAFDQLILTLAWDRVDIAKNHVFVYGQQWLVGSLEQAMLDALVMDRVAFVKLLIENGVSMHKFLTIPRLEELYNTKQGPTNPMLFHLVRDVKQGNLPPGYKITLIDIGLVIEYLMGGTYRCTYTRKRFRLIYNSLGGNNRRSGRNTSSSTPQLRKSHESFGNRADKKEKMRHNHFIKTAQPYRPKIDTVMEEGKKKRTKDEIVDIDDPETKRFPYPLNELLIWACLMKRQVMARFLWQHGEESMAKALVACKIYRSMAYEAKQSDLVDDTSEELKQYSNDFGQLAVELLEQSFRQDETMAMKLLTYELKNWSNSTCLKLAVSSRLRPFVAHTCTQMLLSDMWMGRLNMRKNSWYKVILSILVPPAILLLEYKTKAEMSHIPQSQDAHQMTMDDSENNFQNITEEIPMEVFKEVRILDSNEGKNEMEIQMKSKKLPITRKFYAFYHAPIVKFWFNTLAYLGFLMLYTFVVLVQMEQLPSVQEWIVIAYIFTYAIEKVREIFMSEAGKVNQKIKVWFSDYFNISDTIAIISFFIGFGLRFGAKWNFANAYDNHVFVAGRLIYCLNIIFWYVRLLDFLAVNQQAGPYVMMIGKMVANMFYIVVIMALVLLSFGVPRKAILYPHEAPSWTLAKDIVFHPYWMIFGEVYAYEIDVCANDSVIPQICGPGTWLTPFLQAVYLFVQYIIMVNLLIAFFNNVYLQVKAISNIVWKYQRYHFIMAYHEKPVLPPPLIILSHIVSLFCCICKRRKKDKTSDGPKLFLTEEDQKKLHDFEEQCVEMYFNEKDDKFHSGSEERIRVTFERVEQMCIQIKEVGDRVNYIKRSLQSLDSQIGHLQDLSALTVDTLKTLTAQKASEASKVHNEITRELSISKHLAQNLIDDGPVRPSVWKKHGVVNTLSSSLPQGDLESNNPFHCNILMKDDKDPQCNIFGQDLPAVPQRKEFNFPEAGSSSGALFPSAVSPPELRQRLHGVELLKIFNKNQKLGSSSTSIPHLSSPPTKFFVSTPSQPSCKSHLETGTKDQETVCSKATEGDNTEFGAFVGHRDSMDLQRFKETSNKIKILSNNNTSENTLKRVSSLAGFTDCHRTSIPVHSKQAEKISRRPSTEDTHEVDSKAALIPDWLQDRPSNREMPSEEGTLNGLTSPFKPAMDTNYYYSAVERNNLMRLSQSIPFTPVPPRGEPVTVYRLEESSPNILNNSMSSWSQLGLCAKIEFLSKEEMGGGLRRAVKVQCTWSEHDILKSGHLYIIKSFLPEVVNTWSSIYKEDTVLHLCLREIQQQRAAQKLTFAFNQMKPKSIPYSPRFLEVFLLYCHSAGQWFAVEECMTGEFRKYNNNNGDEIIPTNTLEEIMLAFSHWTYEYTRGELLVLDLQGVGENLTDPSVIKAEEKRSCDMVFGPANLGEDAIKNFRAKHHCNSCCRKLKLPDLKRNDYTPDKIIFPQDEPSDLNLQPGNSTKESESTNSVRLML
Experimental: The DuoLink In situ Red Starter Kit Mouse/Rabbit (Sigma-Aldrich, Merck) was used according to the manufacturer’s protocol for DuoLink In Situ Solutions (Sigma-Aldrich, Merck). Anti-TRPM7/TRPM6 (Abcam, Cambridge, UK), anti-RhoA (NewEast Bioscience, Malvern, PA, USA), anti-MRTF-A (Santa Cruz Biotechnology, Santa Cruz, CA, USA), and anti-Filamin A (Thermo Fisher Scientific, Schwerte, Germany) antibodies were used as primary antibodies for incubation (Table S4). Images were recorded with a fluorescence microscope (Nikon, Düsseldorf, Germany).

[10] = tested on: TSPAN5; experiment: Immunoblotting for TSPAN5; type: cell-based; settings: HuH7 cells
Experimental: (§3) Proteins were denatured by boiling in Laemmli buffer at 95°C. According to their molecular weight, the proteins were separated by SDS-PAGE for 2 h at 100 V using the Bio-Rad Western Blot System (Bio-Rad, Hercules, California, USA) and the power supply peQPOWER 300 (Peqlab Biotechnology, Erlangen, Germany). The proteins were then transferred onto a polyvinylidene fluoride membrane (Merck, Darmstadt, Germany), which was activated in 100% methanol and equilibrated in a transfer buffer. The transfer was done at 350 mA for approximately 2 h. To avoid non-specific protein binding, the membrane was blocked with 5% milk powder in TBS-T. Afterward, the membrane was incubated over night at 4°C with the primary (Table S2) and the respective secondary antibodies for 1 h at room temperature (Table S3). Both was done with gentle shaking. The proteins were detected via chemiluminescence in a luminescent imager (ChemiDoc Imaging System, Bio-Rad).

[11] = tested on: MRTF-A-GFP; experiment: FLIP assay, nuclear export of MRTF-A-GFP; type: cell-based; settings: HuH7 cells, 5 μM, compared to control cells
Experimental: HuH7 cells were plated on 35-mm cell culture dishes and transfected with 200 ng MRTF-A-GFP and 800 ng pEF-FLAG plasmid DNA by using JetPrime (Polyplus, Illkirch, France). After treatment of the cells with the respective inhibitor, cells were imaged at 37°C, 5% CO2 in an Okolab Bold Line Cage Incubator using a Carl Zeiss LSM 700 confocal microscope with Axio Imager M2 and W Plan-Apochromat 63×/1.0 dipping objective. The software ZEN 2012 was used. Imaging parameters were as follows: pinhole diameter 1, resolution 256 × 256, bit depth 12, speed 7, line average 1, and zoom 2. The cytoplasm was bleached continuously starting after 3 scans with 2-s intervals using 100% laser power (488 nm/10 mW), and the nuclear fluorescence was recorded. The pre-bleach values were set to 1.

[12] = tested on: HuH6 cells; experiment: SA-β-Gal staining (cellular senescence) in HuH6 cells; type: cell-based
Experimental: as §2

[13] = tested on: TGF-β1; experiment: Immunoblotting for TGF-β1; type: cell-based; settings: HuH7 cells, 5 μM
Experimental: as §3

Hill slopes for TRPM7 inhibition [5]: -1.292
TRPM7 affinity compared to NS [5]: =NS
SMILES: Clc1cc2c(cc1Cl)C(Nc1nc3ccccc3[nH]1)CCC2 (stereo not drawn) [compound 6]
SK3 affinity compared to NS [4]: >NS

Hill slopes for TRPM7 inhibition [5]: -0.9579
TRPM7 affinity compared to NS [5]: <NS
SMILES: c1ccc2[nH]c(NC3CCCc4ccncc43)nc2c1 (stereo not drawn) [compound 7]
Effect on cell proliferation ([2]; 30 μM NS, rNS, 2, 3, 7, 8, 10 μM 4, 5, 6, 5 days): decreased cell proliferation only marginally
SK3 affinity compared to NS [4]: <NS
Effect on cell proliferation ([3]; 30 µM NS8593, 2, 3, 7, 8, 10 µM 4, 5, 6, 5 days): decreased cell proliferation only marginally

SRF reporter gene activity ([1]; 10 μM): remained largely unchanged
SMILES: c1ccc(-c2ccccc2Nc2nc3ccccc3[nH]2)cc1 [compound 9]

SRF activity (5×SRE-luciferase) [1]: strong decrease
RhoA-TRPM7 interaction (PLA) ([9]; 30 μM): inhibited RhoA-TRPM7 interaction
Hill slopes for TRPM7 inhibition [5]: -1.210
TRPM7 affinity compared to NS [5]: <NS
SMILES: c1ccc2[nH]c(NC3CCCc4sccc43)nc2c1 (stereo not drawn) [compound 8]
MRTF-A nuclear localization reduced to ([6]; 30 μM): 12%
Reduction in SRF activity [1]: 30%
Penetration of HuH7 cells into Matrigel ([8]; 30 μM): strongly impaired
SK3 affinity compared to NS [4]: <NS
Concentration that significantly increases SA-β-Gal-positive cells (senescence induction) [7]: 20 µM
Concentration required to significantly reduce TSPAN5 expression [10]: 20 µM

SRF activity (5×SRE-luciferase) [1]: strong decrease
RhoA-TRPM7 interaction (PLA) ([9]; 5 μM): inhibited RhoA-TRPM7 interaction
Hill slopes for TRPM7 inhibition [5]: -1.448
TRPM7 affinity compared to NS [5]: >NS
SMILES: Clc1cccc2c1CCCC2Nc1nc2ccccc2[nH]1 (stereo not drawn) [compound 5]
MRTF-A nuclear localization reduced to ([6]; 5 μM): 12%
Reduction in SRF activity [1]: 60%
MRTF-A-GFP fluorescence remaining in the nucleus after 80 s of bleaching [11]: less MRTF-A-GFP fluorescence remaining in the nucleus
Penetration of HuH7 cells into Matrigel ([8]; 5 μM): strongly impaired
Concentration that significantly increases SA-β-Gal-positive cells (senescence induction) [12]: 5 µM
TGF-β1 expression (protein level) [13]: almost completely abolished
Concentration at which HuH7 cell growth is already significantly reduced ([2]; titration 2.5, 5, 7.5, 10 μM): 2.5 µM
SK3 affinity compared to NS [4]: =NS
Concentration that significantly increases SA-β-Gal-positive cells (senescence induction) [7]: 5 µM
Fold lower concentration than NS8593 for inducing OIS ([7]; compared with NS8593): 6 fold
TSPAN5 expression (protein level) ([10]; 5 μM): almost completely abolished

SRF reporter gene activity ([1]; 10 μM): remained largely unchanged
SMILES: Fc1ccc(-c2ccccc2Nc2nc3ccccc3[nH]2)cc1 [compound 13]

Continued, compound first:

SMILES: CC(C)c1ccc(-c2cccc(Nc3nc4ccccc4[nH]3)c2)cc1 [compound 14]
Concentration at which SRF activity is significantly reduced [1]: 2.5 µM
Effect on cell proliferation ([2]; 10 μM (Figure 6C)): proliferation arrest
Inhibitory effects on HCC proliferation as compared to inhibitor 10 [2]: significantly improved
Concentration sufficient to cease HCC cell proliferation [2]: 2.5 µM
Effect on cell proliferation ([3]; 10 µM (Figure S5A)): proliferation arrest

SMILES: c1ccc2c(c1)CCCC2Nc1nc2ccccc2[nH]1 (stereo not drawn) [NS8593, reference compound]
Hill slopes for TRPM7 inhibition [5]: -1.432

SMILES: Fc1ccc2c(c1)C(Nc1nc3ccccc3[nH]1)CCC2 (stereo not drawn) [compound 2]
SK3 affinity compared to NS [4]: >NS
Hill slopes for TRPM7 inhibition [5]: -1.165
TRPM7 affinity compared to NS [5]: <NS

SMILES: c1ccc(-c2cccc(Nc3nc4ccccc4[nH]3)c2)cc1 [compound 10]
Localization of endogenous MRTF-A ([6]; HuH7 cells, 5 μM, 18 h): cytoplasmic
SRF activity decreased to ([1]; 10 μM): 25%

SMILES: Fc1cccc(-c2cccc(Nc3nc4ccccc4[nH]3)c2)c1 [compound 16]
Concentration at which SRF activity is significantly reduced [1]: 2.5 µM
Effect on cell proliferation ([2]; 10 μM (Figure 6C)): proliferation arrest
Inhibitory effects on HCC proliferation as compared to inhibitor 10 [2]: significantly improved
Concentration sufficient to cease HCC cell proliferation [2]: 2.5 µM
Effect on cell proliferation ([3]; 10 µM (Figure S5A)): proliferation arrest
Concentration that significantly increases SA-β-Gal-positive cells (senescence induction) [7]: 2.5 µM

SMILES: c1ccc2c(c1)CCCC2Nc1nc2ccccc2[nH]1 (stereo not drawn) [compound 1]
inhibition at 30 µM ([6]; Homo sapiens, Huh-7, HuH7 cells, 30 μM (Figure 3B)): 50%
SRF activity (5×SRE-luciferase) [1]: strong decrease
Penetration of HuH7 cells into Matrigel ([8]; 30 μM): strongly impaired
RhoA-TRPM7 interaction (PLA) ([9]; 30 μM): inhibited RhoA-TRPM7 interaction
SK3 affinity compared to NS [4]: =NS
Concentration that significantly increases SA-β-Gal-positive cells (senescence induction) [7]: 20 µM
Hill slopes for TRPM7 inhibition ([5]; rNS): -1.370
TRPM7 affinity compared to NS [5]: =NS

SMILES: COc1ccc2c(c1)C(Nc1nc3ccccc3[nH]1)CCC2 (stereo not drawn) [compound 3]
SK3 affinity compared to NS [4]: =NS
Hill slopes for TRPM7 inhibition [5]: -1.224
TRPM7 affinity compared to NS [5]: <NS

SMILES: Cc1ccc2c(c1)C(Nc1nc3ccccc3[nH]1)CCC2 (stereo not drawn) [compound 4]
SK3 affinity compared to NS [4]: >NS
Hill slopes for TRPM7 inhibition [5]: -1.123
TRPM7 affinity compared to NS [5]: <NS

Source: article PMC11387234, “Identification of novel inhibitors of the transcriptional coactivator MRTF-A for HCC therapy” (Molecular Therapy Oncology, 2024)
